Organism: Rattus norvegicus
Test: Open TG-GATES - Regimen: Daily Repeat
Type: toxicity, organism-based, Sprague-Dawley
Parameters: regimen Daily Repeat, gender Male, age 6 weeks
Conditions: in vivo, po, 0 mg/kg, […], route gavage, dose level Control; for KIDNEY_L / KIDNEY_R / KIDNEY_TOTAL: tissue Kidney; for LIVER: tissue Liver; for A/G / ALP / ALT / AST / BUN / CRE / Ca / Cl / DBIL / GLC / IP / K / LDH / Na / PL / RALB / TBIL / TC / TG / TP / gamma-GTP: tissue Plasma

Q: What does the source list for `C[C@H]1C(=O)O[C@@H]2CCN3CC=C(COC(=O)[C@](C)(O)[C@]1(C)O)[C@H]23` [MONOCROTALINE]?
A: PT (tissue Blood, time 14 day): 16.7 s; Plat (tissue Blood, time 14 day): 104.7 x10_4/uL; RBC (tissue Blood, time 14 day): 681.6 x10_4/ul; Ret (tissue Blood, time 14 day): 4.5%; WBC (tissue Blood, time 14 day): 124 x10_2/uL; APTT (tissue Blood, time 28 day): 22.4 s; Bas (tissue Blood, time 28 day): 0%; Eos (tissue Blood, time 28 day): 1.2%; Fbg (tissue Blood, time 28 day): 314.2 mg/dL; Hb (tissue Blood, time 28 day): 14.7 g/dL; Ht (tissue Blood, time 28 day): 40.6%; Lym (tissue Blood, time 28 day): 82.2%; MCH (tissue Blood, time 28 day): 19.7 pg; MCHC (tissue Blood, time 28 day): 36.1%; MCV (tissue Blood, time 28 day): 54.6 fL; Mono (tissue Blood, time 28 day): 2%; Neu (tissue Blood, time 28 day): 13.6%; PT (tissue Blood, time 28 day): 16 s; Plat (tissue Blood, time 28 day): 102 x10_4/uL; RBC (tissue Blood, time 28 day): 744.4 x10_4/ul; Ret (tissue Blood, time 28 day): 2.6%; WBC (tissue Blood, time 28 day): 110.5 x10_2/uL; KIDNEY_L (time 7 day): 1.1 g; KIDNEY_R (time 7 day): 1.1 g; KIDNEY_TOTAL (time 7 day): 2.2 g; KIDNEY_L (time 14 day): 1.3 g; KIDNEY_R (time 14 day): 1.3 g; KIDNEY_TOTAL (time 14 day): 2.5 g; KIDNEY_L (time 28 day): 1.3 g; KIDNEY_R (time 28 day): 1.4 g; KIDNEY_TOTAL (time 28 day): 2.7 g; LIVER (time 7 day): 12.7 g; LIVER (time 14 day): 13.3 g; LIVER (time 28 day): 14.7 g; A/G (time 7 day): 1.2; ALP (time 7 day): 1469.6 IU/L; ALT (time 7 day): 37.8 IU/L; AST (time 7 day): 65 IU/L; BUN (time 7 day): 18 mg/dL; CRE (time 7 day): 0.2 mg/dL; Ca (time 7 day): 10.7 mg/dL; Cl (time 7 day): 105.4 meq/L; DBIL (time 7 day): 0 mg/dL; GLC (time 7 day): 187 mg/dL; IP (time 7 day): 7 mg/dL; K (time 7 day): 4.3 meq/L; LDH (time 7 day): 182.2 IU/L; Na (time 7 day): 142.4 meq/L; PL (time 7 day): 156.2 mg/dL; RALB (time 7 day): 3.1 g/dL; TBIL (time 7 day): 0.002 mg/dL; TC (time 7 day): 79.6 mg/dL; TG (time 7 day): 111 mg/dL; TP (time 7 day): 5.6 g/dL; gamma-GTP (time 7 day): 1 IU/L; A/G (time 14 day): 1.2; ALP (time 14 day): 1565.6 IU/L; ALT (time 14 day): 36 IU/L; AST (time 14 day): 68.6 IU/L; BUN (time 14 day): 19.4 mg/dL; CRE (time 14 day): 0.2 mg/dL; Ca (time 14 day): 10.8 mg/dL; Cl (time 14 day): 105.6 meq/L; DBIL (time 14 day): 0.002 mg/dL; GLC (time 14 day): 194 mg/dL; IP (time 14 day): 6.6 mg/dL; K (time 14 day): 4.3 meq/L; LDH (time 14 day): 217 IU/L; Na (time 14 day): 142.4 meq/L; PL (time 14 day): 144 mg/dL; RALB (time 14 day): 3.2 g/dL; TBIL (time 14 day): 0 mg/dL; TC (time 14 day): 66.6 mg/dL; TG (time 14 day): 148 mg/dL; TP (time 14 day): 5.9 g/dL; gamma-GTP (time 14 day): 1.6 IU/L

Source: ChEMBL document CHEMBL3885861, “Open TG-GATES”
